{"source": "paper PMC4579270", "about": "“Identification and Characterization of an Irreversible Inhibitor of CDK2” (Chemistry & Biology, 2015)", "assay_in_all_cases": "Dundee kinase screen re-test (standard format and 4 hour pre-incubation)", "assay_type_in_all_cases": "biochemical", "key": {"PDK1": {"molecular_target": "T1, PDK1 (Homo sapiens, UniProt O15530)", "T1 sequence (O15530 1-556)": "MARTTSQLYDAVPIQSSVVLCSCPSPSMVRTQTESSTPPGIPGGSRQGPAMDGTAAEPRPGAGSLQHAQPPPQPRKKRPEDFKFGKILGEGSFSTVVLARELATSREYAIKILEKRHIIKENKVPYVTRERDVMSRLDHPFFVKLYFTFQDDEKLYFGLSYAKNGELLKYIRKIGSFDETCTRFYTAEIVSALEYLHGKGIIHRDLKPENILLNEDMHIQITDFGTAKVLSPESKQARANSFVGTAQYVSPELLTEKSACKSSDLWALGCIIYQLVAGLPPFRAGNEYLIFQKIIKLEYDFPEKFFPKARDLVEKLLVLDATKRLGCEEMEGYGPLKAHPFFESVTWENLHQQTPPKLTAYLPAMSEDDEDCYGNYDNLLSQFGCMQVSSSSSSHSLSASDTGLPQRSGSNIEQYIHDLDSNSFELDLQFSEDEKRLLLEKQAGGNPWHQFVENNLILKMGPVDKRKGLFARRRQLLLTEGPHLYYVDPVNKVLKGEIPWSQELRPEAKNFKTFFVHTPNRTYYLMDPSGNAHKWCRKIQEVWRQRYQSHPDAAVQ", "settings": "PDK1, 0.5µM", "description": "(§1) Prior to determining its cellular activity, we carried out a screen to assess its selectivity against a panel of 131 protein kinases under conditions that would not distinguish between a reversible or irreversible mode of action. […] These 13 kinases and 29 additional kinases, selected for their known sensitivity to other inhibitors within the purine series, were then tested in a modified screening format in which the assay was repeated following a 4-hr pre-incubation (Table S3B). […] However, conformational flexibility around the active site may promote such an interaction with a residue from another part of the structure ([Martin et al., 2012]).\n(§2) Table S3, Related to Figure 4. NCL-0006300 protein kinase selectivity. […]\n(§3) Dundee protein kinase screen (Bain et al., 2007). […]\n(§4) (B) Selected kinases were re-tested in the Dundee kinase screen against NU6300 at a single concentration of 0.5 µM both in the standard assay format and following a 4 hour pre-incubation in the presence of NU6300. Kinases which have very low activity after the 4 hour incubation so that results might not be wholly reliable are boxed in salmon. Kinases where the activity after a 4 hour pre-incubation is < 50% that in the standard assay format are highlighted in red."}, "YES1": {"molecular_target": "YES1 (Homo sapiens, UniProt P07947)", "sequence (P07947 whole entry)": "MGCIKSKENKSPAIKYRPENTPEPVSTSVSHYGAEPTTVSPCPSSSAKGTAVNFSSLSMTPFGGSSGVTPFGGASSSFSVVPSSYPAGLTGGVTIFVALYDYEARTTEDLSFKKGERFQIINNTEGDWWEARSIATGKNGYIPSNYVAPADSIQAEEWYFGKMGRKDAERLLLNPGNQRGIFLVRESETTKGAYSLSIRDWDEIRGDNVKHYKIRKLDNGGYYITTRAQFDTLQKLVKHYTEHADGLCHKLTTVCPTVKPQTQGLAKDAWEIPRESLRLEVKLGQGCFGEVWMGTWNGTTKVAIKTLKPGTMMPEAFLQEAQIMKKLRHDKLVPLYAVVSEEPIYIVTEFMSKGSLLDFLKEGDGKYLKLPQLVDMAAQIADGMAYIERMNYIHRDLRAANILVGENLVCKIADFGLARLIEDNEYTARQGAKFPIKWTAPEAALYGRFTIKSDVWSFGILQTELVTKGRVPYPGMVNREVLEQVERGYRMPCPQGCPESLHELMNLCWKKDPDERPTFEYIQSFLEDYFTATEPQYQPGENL", "settings": "YES1, 0.5µM", "description": "as §1, §2, §3, §4"}, "TTK": {"molecular_target": "T2, TTK (Homo sapiens, UniProt P33981)", "T2 sequence (P33981 1-857)": "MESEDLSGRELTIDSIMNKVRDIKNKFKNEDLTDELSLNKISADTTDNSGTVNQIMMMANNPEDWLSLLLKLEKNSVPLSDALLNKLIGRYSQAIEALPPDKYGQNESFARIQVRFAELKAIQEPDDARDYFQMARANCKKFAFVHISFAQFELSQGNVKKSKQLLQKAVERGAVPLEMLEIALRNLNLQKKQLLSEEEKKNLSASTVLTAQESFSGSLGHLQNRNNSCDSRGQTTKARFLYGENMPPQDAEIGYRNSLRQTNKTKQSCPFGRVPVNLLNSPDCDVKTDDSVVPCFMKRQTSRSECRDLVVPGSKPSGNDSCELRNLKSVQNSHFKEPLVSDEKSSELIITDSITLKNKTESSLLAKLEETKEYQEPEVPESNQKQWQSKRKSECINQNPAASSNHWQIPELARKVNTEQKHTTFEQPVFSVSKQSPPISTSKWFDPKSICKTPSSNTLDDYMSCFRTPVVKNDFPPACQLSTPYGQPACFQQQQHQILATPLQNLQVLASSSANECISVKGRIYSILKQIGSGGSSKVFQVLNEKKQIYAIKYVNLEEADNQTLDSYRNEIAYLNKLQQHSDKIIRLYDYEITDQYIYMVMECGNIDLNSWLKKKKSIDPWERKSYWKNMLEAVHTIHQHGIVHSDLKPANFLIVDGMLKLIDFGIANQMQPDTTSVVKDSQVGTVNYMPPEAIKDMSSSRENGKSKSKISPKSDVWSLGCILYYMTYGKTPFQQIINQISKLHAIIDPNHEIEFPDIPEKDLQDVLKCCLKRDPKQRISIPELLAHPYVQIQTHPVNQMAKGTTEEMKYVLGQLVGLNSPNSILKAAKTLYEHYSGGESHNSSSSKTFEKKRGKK", "description": "as §1, §2, §3, §4"}, "[1]": {"settings": "4hr RT preincubation, read-out: %Remaining activity at 0.5µM NU6300 - 4hr RT preincubation"}, "[2]": {"settings": "usual format, read-out: %Remaining activity at 0.5µM NU6300 - Usual assay format"}}, "note": "Where two headings read alike, the source gives them in different places.", "data": [{"molecule": "C=CS(=O)(=O)c1ccc(Nc2nc(OCC3CCCCC3)c3nc[nH]c3n2)cc1", "note": "[NU6300, 6-(cyclohexylmethoxy)-N-(4-(vinylsulfonyl)phenyl)-9H-purin-2-amine]", "values": [{"measurement": "remaining activity at 0.5 µM", "setting": "PDK1; [1]", "result": 40, "unit": "%"}, {"measurement": "remaining activity at 0.5 µM", "setting": "PDK1; [2]", "result": 29, "unit": "%"}, {"measurement": "remaining activity at 0.5 µM", "setting": "YES1; [1]", "result": 135, "unit": "%"}, {"measurement": "remaining activity at 0.5 µM", "setting": "YES1; [2]", "result": 43, "unit": "%"}, {"measurement": "remaining activity at 0.5 µM", "setting": "TTK; [1]", "result": 47, "unit": "%"}, {"measurement": "remaining activity at 0.5 µM", "setting": "TTK; [2]", "result": 41, "unit": "%"}]}]}
